Test results from patent US4539329A, “7'-Trifluoromethyl-spiro[imidazolidine-4,3'-indoline]-2,2',5-triones as aldose reductase inhibitors” (Imperial Chemical Industries, plc, priority 1982, dated 1985).

Target: T1, aldose reductase (Bos taurus, UniProt P16116)
T1 construct: purified aldose reductase is isolated in known manner from bovine lenses; from tissue; host or cells: bovine lens
Assay: in vitro inhibition of purified aldose reductase from bovine lenses (reduction of glucose to sorbitol, spectrophotometric)
Type: biochemical
Settings: aldose reductase preparation obtained from bovine lenses; read-out: concentration producing a 50% reduction in the conversion of glucose to sorbitol
Description: Thus, purified aldose reductase is isolated in known manner from bovine lenses. The percentage inhibition of this enzyme's ability in vitro to reduce aldoses to polyhydric alcohols, and particularly to reduce glucose to sorbitol, caused by a test compound is then determined using standard spectrophotometric methods. In this test the compounds of formula I in general show significant inhibition of the enzyme aldose reductase at a concentration of about 10^-8 M.

For `O=C1NC(=O)C2(N1)C(=O)N(Cc1ccc(Br)cc1F)c1c(C(F)(F)F)cccc12` (racemic) [A, 1'-(4-bromo-2-fluorobenzyl)-7'-(trifluoromethyl)-spiro[imidazolidine-4,3'-indoline]-2,2',5-trione], the IC50 was 10.5 nM.
